Reference: patent US7517911B2, “3,4,5-trimethoxy phenyl-based ester compound and preparation method thereof and whitening cosmetic composition containing the same” (Amorepacific Corporation, priority 2001, dated 2009)

What was measured:
[1] = test system: Mel-Ab cells; experiment: Melanin-inhibiting effect in the melanocytes (Dooley method); type: cell-based, C57BL/6; conditions: 10 ppm in culture medium, absorbance at 400 nm, compared with cells cultured without compound
[2] = test system: human skin; experiment: Whitening effect on the human skin (UVB-induced pigmentation, Chromameter); type: in vivo; conditions: applied for 10 weeks after UVB, 12 male volunteers
Excerpt: The brachia of twelve (12) healthy volunteers (males) were attached with opaque tape having 1.5 cm diameter holes, and then irradiated with UVB (ultraviolet rays B) in 1.5˜2 times the intensity of the minimum amount to form erythema for each volunteer, to induce pigmentation. After irradiating the UVB, 1% diluted solutions of the ester compounds of Examples 1˜6 (solvent was 1,3-butyleneglycol:ethanol=7:3) were applied on the above treated brachia for ten (10) weeks (the above 1% diluted solution was not applied on one brachium), and the colors of the skins thereof were measured by Chromameter CR2002 (manufactured by Minolta; Japan) per every one week. The difference of “L”, that is, “Δ L”, the amount of the increase of brightness of skin compared with those not applied with diluted solution, was measured. For reference, measurements for the cases that 3% kojic acid and vehicle (solvent) were applied were performed.

[3] = test system: rabbit skin; experiment: Test for skin irritation on animals (Draize P.I.I.); type: in vivo, rabbits; conditions: 1% diluted solution, 0.5 ml; for P.I.I.: measured 24 and 72 hours after application
Protocol: The hairs on the backs of six (6) healthy male rabbits were removed. After making areas of 2.5 cm×2.5 cm on the left and right sides of the back of each rabbit, nothing was applied on the left area of the back as control area, and 1% diluted solutions of the ester compounds of Examples 1˜6 (solvent was 1,3-butyleneglycol:ethanol=7:3) were applied on the right area of the back of the rabbits with an amount of 0.5 ml, one compound for each rabbit respectively. Irritations such as erythema, rash or edema were measured 24 hours and 72 hours after the application. In addition, the degree of irritation was determined according to the conventional, “P.I.I.” (Primary Irritation Index) of Draize, and the results are shown in Table 6.

[4] = test system: guinea pig skin; experiment: Test for radiation toxicity (UVA); type: in vivo
Protocol: The hairs on the backs of ten (10) guinea pigs were removed. After fixing the pigs, the back was divided into six (6) areas each having 2.0 cm×2.0 cm area, three (3) areas on the left side and three (3) on the right side. Right side areas were control areas prevented from being radiated, and left side areas were radiation areas. 1% (w/v) diluted solutions of ester compounds of Examples 1˜6 were applied thereto with an equal amount of 50 μl respectively, while using vehicle (1,3-butyleneglycol:ethanol=7:3) as a negative control, and using 0.1% 8-MOP(methoxypsoralene) as a positive control. After 30 minutes later, left sides of the back of the pig was shielded from light by aluminum foil, and UVA(320˜380 nm) was radiated from 10 cm distant with an final energy of 15J/cm^2 by using ultraviolet radiation device (waldmann). The skin of the guinea pig was observed after 24, 48 and 72 hours later. The irritation was graded as shown in table 5 with 0˜4 grades according to the intensity of the erythema and edema, and the sum was calculated. In the evaluation, the maximum value of the measurement that performed after 24, 48 and 72 hours later was chosen, and then the Irritation Index of an animal skin was calculated according to mathematical formula 1, and finally, the Radiation Toxicity Index was calculated according to mathematical Formula 2. Irritation Index of an animal skin=(Σ maximum value of erythema index+Σ maximum value of edema index)/number of animals [Mathematical Formula 1] Radiation Toxicity Index=(Irritation Index of an animal skin in an area of UV radiation)−(Irritation Index of an animal skin in an area UV non-radiation) [Mathematical Formula 2]

[5] = test system: human skin; experiment: Test for application to human skin (patch test, CTFA Guideline); type: in vivo; conditions: for The number of volunteers having reaction, mark +: + = Intense erythema; for The number of volunteers having reaction, mark + / The number of volunteers having reaction, mark ++ / The number of volunteers having reaction, mark +++ / The number of volunteers having reaction, mark ± / The number of volunteers having reaction, mark −: 1% in patch base, n = 30; for The number of volunteers having reaction, mark ++: ++ = Intense erythema with edema; for The number of volunteers having reaction, mark +++: +++ = Intense erythema with edema &vesicle; for The number of volunteers having reaction, mark ±: ± = Mild erythema; for The number of volunteers having reaction, mark −: − = No visible reactions; for Average reaction (n = 30): {(grade × number of volunteers) × 100}/{maximum grade × total volunteers × number of test}, non-irritation standard value 1.0
Protocol: Each of the ester compounds of Examples 1˜6 were dissolved in a patch base shown in Table 8 to be 1% concentration respectively, to prepare test samples. 20 μl of each test sample was dropped in a Finn Chamber to make a patch, and the patch was attached to antebrachial skin (test region) and fixed with micro tape. The patch was attached for 24 hours, and after removing the patch, the test region was checked with marking pen, and then the region was observed after 1 and 24 hours.

[6] = 1% diluted solution (1,3-butyleneglycol:ethanol=7:3)
[7] = 1% (w/v) solution 50 μl, UVA 15J/cm^2, observed 24, 48 and 72 hours
[8] = 1% (w/v) solution, UVA 15J/cm^2

| Compound | Melanin generation ratio (%) [1] | Increase of brightness of skin (Δ L) ([2]; 3% kojic acid) | Increase of brightness of skin (Δ L) [2, 6] | Determination (skin irritation) [3] | P.I.I. [3] | Radiation Toxicity Index [4, 7] | Determination (radiation toxicity) [4, 8] | The number of volunteers having reaction, mark + ([5]; 24 hours later) | The number of volunteers having reaction, mark ++ ([5]; 24 hours later) | The number of volunteers having reaction, mark +++ ([5]; 24 hours later) | The number of volunteers having reaction, mark ± ([5]; 24 hours later) | The number of volunteers having reaction, mark − ([5]; 24 hours later) | The number of volunteers having reaction, mark + ([5]; 48 hours later) | The number of volunteers having reaction, mark ++ ([5]; 48 hours later) | The number of volunteers having reaction, mark +++ ([5]; 48 hours later) | The number of volunteers having reaction, mark ± ([5]; 48 hours later) | The number of volunteers having reaction, mark − ([5]; 48 hours later) | Average reaction (n = 30) [5] | Determination (radiation toxicity) ([4]; in vivo) | Radiation Toxicity Index ([4]; in vivo) |
| --- | --- | --- | --- | --- | --- | --- | --- | --- | --- | --- | --- | --- | --- | --- | --- | --- | --- | --- | --- | --- |
| O=c1cc(CO)occ1O [Kojic acid, kojic acid, reference compound] | 88.0% | 0.99 ± 0.11 |  |  |  |  |  |  |  |  |  |  |  |  |  |  |  |  |  |  |
| COc1cc(CCC(=O)O)cc(OC)c1OC [3,4,5-trimethoxy hydrocinnamic acid, reference compound] | 92.5% |  |  |  |  |  |  |  |  |  |  |  |  |  |  |  |  |  |  |  |
| Cc1ccc(C(C)C)cc1O [Carvacrol, carvacrol, reference compound] | 91.5% |  |  |  |  |  |  |  |  |  |  |  |  |  |  |  |  |  |  |  |
| COc1cc(/C=C/C(=O)Oc2cc(C(C)C)ccc2C)cc(OC)c1OC [Example 4, 2-methyl-5-(methylethyl)phenyl(2E)-3-(3,4,5-trimethoxyphenyl)-2-propanoate] | 58.9% |  | 1.22 ± 0.18 | No irritation | 0.350 | 0 | Radiation Non-Toxic | 0 | 0 | 0 | 1 | 29 | 0 | 0 | 0 | 0 | 30 | 0.42 |  |  |
| 2-methyl-5-(methylethylphenyl)-2-(3,4,5-trimethoxyphenyl)acetate [Example 2] | 51.2% |  | 1.51 ± 0.13 | No irritation | 0.345 |  |  | 0 | 0 | 0 | 0 | 30 | 0 | 0 | 0 | 1 | 29 | 0.42 | Radiation Non-Toxic | 0 |
| COc1cc(CC(=O)Oc2cc(C)ccc2C(C)C)cc(OC)c1OC [Example 1] | 47.8% |  | 1.71 ± 0.25 | No irritation | 0.375 | 0 | Radiation Non-Toxic | 0 | 0 | 0 | 2 | 28 | 0 | 0 | 0 | 0 | 30 | 0.83 |  |  |
| COc1cc(CC(=O)O)cc(OC)c1OC [3,4,5-trimethoxy phenylacetic acid, reference compound] | 95.8% |  |  |  |  |  |  |  |  |  |  |  |  |  |  |  |  |  |  |  |
| 5-methyl-2-(methylethyl)phenyl-3-(3,4,5-trimethoxyphenyl)propanoate [Example 5] | 50.0% |  | 1.40 ± 0.12 | No irritation | 0.375 |  |  | 0 | 0 | 0 | 0 | 30 | 0 | 0 | 0 | 0 | 30 | 0.00 | Radiation Non-Toxic | 0 |
| COc1cc(C=CC(=O)O)cc(OC)c1OC [3,4,5-trimethoxy cinnamic acid, reference compound] | 96.3% |  |  |  |  |  |  |  |  |  |  |  |  |  |  |  |  |  |  |  |
| COc1cc(/C=C/C(=O)Oc2cc(C)ccc2C(C)C)cc(OC)c1OC [Example 3, 5-methyl-2-(methylethyl)phenyl(2E)-3-(3,4,5-trimethoxyphenyl)-2-propanoate] | 45.6% |  | 1.38 ± 0.11 | No irritation | 0.375 | 0 | Radiation Non-Toxic | 0 | 0 | 0 | 0 | 30 | 0 | 0 | 0 | 0 | 30 | 0.00 |  |  |
| COc1cc(CCC(=O)Oc2cc(C(C)C)ccc2C)cc(OC)c1OC [Example 6, 2-methyl-5-(methylethyl)phenyl-3-(3,4,5-trimethoxyphenyl)propanoate] | 48.1% |  | 1.49 ± 0.11 | No irritation | 0.315 | 0 | Radiation Non-Toxic | 0 | 0 | 0 | 0 | 30 | 0 | 0 | 0 | 0 | 30 | 0.00 |  |  |
| Cc1ccc(C(C)C)c(O)c1 [Thymol, thymol, reference compound] | 94.5% |  |  |  |  |  |  |  |  |  |  |  |  |  |  |  |  |  |  |  |
